Data: patent publication US20260285850A1, “SUBSTITUTED OXAZOLIDINONES AND IMIDAZOLINONES AS HERBICIDES” (FMC CORPORATION, priority 2023, published 2026)

Legend:
Type in all cases: in vivo
[1] = system: barnyardgrass (Echinochloa crus-galli); test: Test A preemergence soil spray, visual injury rating 0-100; details: 10 days, 0 = no effect, 100 = complete control
Excerpt: (§1) Seeds of plant species selected from barnyardgrass (Echinochloa crus-galli), blackgrass (Alopecurus myosuroides), corn (Zea mays), foxtail, giant (giant foxtail, Setaria faberi), green foxtail (Setaria viridis), goosegrass (Eleusine indica), kochia (Bassia scoparia), oat, wild (wild oat, Avena fatua), palmer (palmer amaranth, palmer pigweed, Amaranthus palmeri), ragweed (common ragweed, Ambrosia artemisiifolia), ryegrass, Italian (italian ryegrass, Lolium multiflorum), soybean (Glycine max) and wheat (Triticum aestivum) were planted into a blend of loam soil and sand and treated preemergence with a directed soil spray using test chemicals formulated in a non-phytotoxic solvent mixture which included a surfactant.
(§2) At the same time, plants selected from these crops and weed species and also galium (catchweed bedstraw, Galium aparine) and horseweed (Erigeron canadensis) were planted in pots containing the same blend of loam soil and sand and treated with postemergence applications of test chemicals formulated in the same manner. Plants ranged in height from 2 to 10 cm and were in the one- to two-leaf stage for the postemergence treatment. Treated plants and untreated controls were maintained in a greenhouse for 10 days, after which time all treated plants were compared to untreated controls and visually evaluated for injury. Plant response ratings, summarized in Table A, are based on a 0 to 100 scale where 0 is no effect and 100 is complete control. A dash (-) response means no test result.

[2] = system: blackgrass (Alopecurus myosuroides); test: as above; details: 10 days, 0 = no effect, 100 = complete control
Excerpt: as §1, §2

corn (Zea mays) [3] = test: as above; details: 10 days, 0 = no effect, 100 = complete control
Excerpt: as §1, §2

[4] = system: green foxtail (Setaria viridis); test: as above; details: 10 days, 0 = no effect, 100 = complete control
Excerpt: as §1, §2

kochia (Bassia scoparia) [5] = test: as above; details: 10 days, 0 = no effect, 100 = complete control
Excerpt: as §1, §2

[6] = system: oat, wild (wild oat, Avena fatua); test: as above; details: 10 days, 0 = no effect, 100 = complete control
Excerpt: as §1, §2

[7] = system: palmer (palmer amaranth, palmer pigweed, Amaranthus palmeri); test: as above; details: 10 days, 0 = no effect, 100 = complete control
Excerpt: as §1, §2

[8] = system: ragweed (common ragweed, Ambrosia artemisiifolia); test: as above; details: 10 days, 0 = no effect, 100 = complete control
Excerpt: as §1, §2

[9] = system: ryegrass, Italian (italian ryegrass, Lolium multiflorum); test: as above; details: 10 days, 0 = no effect, 100 = complete control
Excerpt: as §1, §2

soybean (Glycine max) [10] = test: as above; details: 10 days, 0 = no effect, 100 = complete control
Excerpt: as §1, §2

[11] = system: wheat (Triticum aestivum); test: as above; details: 10 days, 0 = no effect, 100 = complete control
Excerpt: as §1, §2

[12] = system: barnyardgrass (Echinochloa crus-galli); test: Test A postemergence application, visual injury rating 0-100; details: 10 days
Excerpt: as §1, §2

[13] = system: blackgrass (Alopecurus myosuroides); test: as above; details: 10 days
Excerpt: as §1, §2

corn (Zea mays) [14] = test: as above; details: 10 days
Excerpt: as §1, §2

[15] = system: green foxtail (Setaria viridis); test: as above; details: 10 days
Excerpt: as §1, §2

[16] = system: horseweed (Erigeron canadensis); test: as above; details: 10 days
Excerpt: as §1, §2

kochia (Bassia scoparia) [17] = test: as above; details: 10 days
Excerpt: as §1, §2

[18] = system: oat, wild (wild oat, Avena fatua); test: as above; details: 10 days
Excerpt: as §1, §2

[19] = system: palmer (palmer amaranth, palmer pigweed, Amaranthus palmeri); test: as above; details: 10 days
Excerpt: as §1, §2

[20] = system: ragweed (common ragweed, Ambrosia artemisiifolia); test: as above; details: 10 days
Excerpt: as §1, §2

[21] = system: ryegrass, Italian (italian ryegrass, Lolium multiflorum); test: as above; details: 10 days
Excerpt: as §1, §2

soybean (Glycine max) [22] = test: as above; details: 10 days
Excerpt: as §1, §2

[23] = system: wheat (Triticum aestivum); test: as above; details: 10 days
Excerpt: as §1, §2

[24] = system: barnyardgrass (Echinochloa crusgalli); test: Test B flooded paddy test, visual plant response rating 0-100; details: 250 g ai/ha, Flood, applied to paddy water, evaluated after 13 days
Experimental: (§3) Plant species in the flooded paddy test selected from barnyardgrass (Echinochloa crusgalli), ducksalad (Heteranthera limosa), rice (Oryza sativa), and sedge, umbrella (small-flower umbrella sedge, Cyperus difformis) were grown to the 2-leaf stage for testing. At time of treatment, test pots were flooded to 3 cm above the soil surface, treated by application of test compounds directly to the paddy water, and then maintained at that water depth for the duration of the test. Treated plants and controls were maintained in a greenhouse for 13 days, after which time all species were compared to controls and visually evaluated. […] A dash (-) response means no test result.

[25] = system: ducksalad (Heteranthera limosa); test: as above; details: 250 g ai/ha, Flood, applied to paddy water, evaluated after 13 days
Experimental: as §3

rice (Oryza sativa) = test: as above; details: 250 g ai/ha, Flood, applied to paddy water, evaluated after 13 days
Experimental: as §3

[26] = system: sedge, umbrella (small-flower umbrella sedge, Cyperus difformis); test: as above; details: 250 g ai/ha, Flood, applied to paddy water, evaluated after 13 days
Experimental: as §3

[27] = 31 g ai/ha, postemergence, 0 = no effect, 100 = complete control
[28] = Postemergence, 125 g ai/ha, 0 is no effect, 100 is complete control

## CC(C)OC(=O)C1CCC(NC(=O)C2(C)CN(c3cc(F)cc(F)c3)C(=O)O2)C1 (centres unmarked) [Compound 12]
[1]; 31 g ai/ha
  Barnyardgrass plant response rating (0-100): 0
[1]; 125 g ai/ha
  Barnyardgrass plant response rating (0 to 100 scale): 90
[2]; 31 g ai/ha
  Blackgrass plant response rating (0-100): 20
[2]; 125 g ai/ha
  Blackgrass plant response rating (0 to 100 scale): 80
Corn (Zea mays) [3]; 31 g ai/ha
  Corn plant response rating (0-100): 0
Corn (Zea mays) [3]; 125 g ai/ha
  Corn plant response rating (0 to 100 scale): 50
[4]; 31 g ai/ha
  Foxtail, Green plant response rating (0-100): 0
[4]; 125 g ai/ha
  Foxtail, Green plant response rating (0 to 100 scale): 50
Kochia (Bassia scoparia) [5]; 31 g ai/ha
  Kochia plant response rating (0-100): 20
Kochia (Bassia scoparia) [5]; 125 g ai/ha
  Kochia plant response rating (0 to 100 scale): 70
[6]; 31 g ai/ha
  Oat, Wild plant response rating (0-100): 0
[6]; 125 g ai/ha
  Oat, Wild plant response rating (0 to 100 scale): 90
[7]; 31 g ai/ha
  Amaranth, Palmer plant response rating (0-100): 0
[7]; 125 g ai/ha
  Amaranth, Palmer plant response rating (0 to 100 scale): 0
[8]; 31 g ai/ha
  Ragweed plant response rating (0-100): 0
[8]; 125 g ai/ha
  Ragweed plant response rating (0 to 100 scale): 0
[9]; 31 g ai/ha
  Ryegrass, Italian plant response rating (0-100): 0
[9]; 125 g ai/ha
  Ryegrass, Italian plant response rating (0 to 100 scale): 90
Soybean (Glycine max) [10]; 31 g ai/ha
  Soybean plant response rating (0-100): 10
Soybean (Glycine max) [10]; 125 g ai/ha
  Soybean plant response rating (0 to 100 scale): 0
[11]; 31 g ai/ha
  Wheat plant response rating (0-100): 50
[11]; 125 g ai/ha
  Wheat plant response rating (0 to 100 scale): 90
[12]; [27]
  Barnyardgrass plant response rating (0-100): 10
[12]; [28]
  Barnyardgrass plant response rating (0 to 100 scale): 100
[13]; [27]
  Blackgrass plant response rating (0-100): 50
[13]; [28]
  Blackgrass plant response rating (0 to 100 scale): 80
Corn (Zea mays) [14]; [27]
  Corn plant response rating (0-100): 20
Corn (Zea mays) [14]; [28]
  Corn plant response rating (0 to 100 scale): 50
[15]; [27]
  Foxtail, Green plant response rating (0-100): 20
[15]; [28]
  Foxtail, Green plant response rating (0 to 100 scale): 60
[16]; [27]
  Horseweed plant response rating (0-100): 0
[16]; [28]
  Horseweed plant response rating (0 to 100 scale): 10
Kochia (Bassia scoparia) [17]; [27]
  Kochia plant response rating (0-100): 20
Kochia (Bassia scoparia) [17]; [28]
  Kochia plant response rating (0 to 100 scale): 80
[18]; [27]
  Oat, Wild plant response rating (0-100): 80
[18]; [28]
  Oat, Wild plant response rating (0 to 100 scale): 90
[19]; [27]
  Amaranth, Palmer plant response rating (0-100): 0
[19]; [28]
  Amaranth, Palmer / Pigweed, Palmer plant response rating (0 to 100 scale): 20
[20]; [27]
  Ragweed plant response rating (0-100): 0
[20]; [28]
  Ragweed plant response rating (0 to 100 scale): 0
[21]; [27]
  Ryegrass, Italian plant response rating (0-100): 60
[21]; [28]
  Ryegrass, Italian plant response rating (0 to 100 scale): 80
Soybean (Glycine max) [22]; [27]
  Soybean plant response rating (0-100): 30
Soybean (Glycine max) [22]; [28]
  Soybean plant response rating (0 to 100 scale): 50
[23]; [27]
  Wheat plant response rating (0-100): 50
[23]; [28]
  Wheat plant response rating (0 to 100 scale): 60
[24]
  Plant response rating, Barnyardgrass (0 to 100 scale, 0 is no effect and 100 is complete control): 0
[25]
  Plant response rating, Ducksalad (0 to 100 scale, 0 is no effect and 100 is complete control): 0
Rice (Oryza sativa)
  Plant response rating, Rice (0 to 100 scale, 0 is no effect and 100 is complete control): 0
[26]
  Plant response rating, Sedge, Umbrella (0 to 100 scale, 0 is no effect and 100 is complete control): 0
